Tests used:
[1] = biological target: T1, Bovine lysyl oxidase (LOX) (Bos taurus, UniProt P33072); assay: LOX inhibition assay (fluorometric, cadaverine/Amplex Red/HRP); type: biochemical; conditions: IC50 class; bovine tendon LOX, cadaverine substrate; read-out: Activity Range LOX
T1 construct: from tissue; host or cells: adult bovine tendon
T1 sequence (P33072 170-418): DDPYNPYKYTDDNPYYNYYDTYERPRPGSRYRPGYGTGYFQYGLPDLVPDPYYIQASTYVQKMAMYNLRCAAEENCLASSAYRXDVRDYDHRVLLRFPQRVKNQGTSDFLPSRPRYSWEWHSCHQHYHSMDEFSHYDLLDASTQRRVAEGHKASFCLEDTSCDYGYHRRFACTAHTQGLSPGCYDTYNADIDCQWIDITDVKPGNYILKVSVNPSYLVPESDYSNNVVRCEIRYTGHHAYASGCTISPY
Experimental: (§1) The ability of compounds to inhibit prototypic LOX was determined using a fluorometric assay. This assay measures the activity of lysyl oxidases by coupling the reaction with horseradish peroxidase-catalyzed […]. The activity assay protocol uses cadaverine as substrate that releases hydrogen peroxide upon transformation by prototypic LOX enzyme present in the sample. Hydrogen peroxide is in turn detected using a red fluorescence substrate for HRP-coupled reactions (Amplex Red Enzyme Assays, Thermo Scientific Fisher). This leads to increase in fluorescence that can be easily detected at Ex/Em=540/590 nm in a fluorescence microplate reader.
Enzyme: Bovine lysyl oxidase (LOX) was extracted by adapting the methodology from [Kagan et al. 1979 and Borel et al. 2001.] from bovine tendon: Frozen adult bovine tendon was placed in room temperature water to defrost, and then membranes were removed and the remaining tissue cut into 1 cm pieces. The material was first passed through a course mesh meat grinder, and this mince was passed through a fine mesh grinder. The mince was homogenized in 10 v/w of buffer (16 mM sodium phosphate buffer pH 7.8, 400 mM NaCl) using a Waring blender. The homogenate was centrifuged at 15,000×g for 15 min at 4° C. After centrifugation, the supernatant was discarded and the pellets resuspended in 10 volumes of the same buffer. The mixture was blended again and centrifuged with the same settings. This time the pellets were blended in 3 volumes of extraction buffer (16 mM sodium phosphate buffer pH 7.8) and left to incubate at 4° C. for 2 h. After this time, the slurry was centrifuged with the same settings as described above. The supernatant was used in an ultrafiltration step to remove large proteins by size exclusion through a 30 kDalton filter (EMD Millipore). The filtrate was mixed with DEAE Sephadex (GE Healthcare), or passed over a MonoQ FPLC column. After two washes, one in 16 mM sodium phosphate buffer pH 7.8, 380 mM NaCl, and another in 16 mM sodium phosphate buffer pH 7.8, the proteins were eluted with 16 mM sodium phosphate pH 7.8, 10 μM CuSO4, and 4 M urea. Fractions containing Lox activity were collected and stored frozen at −70° C.
Reaction: Final concentration in the LOX assay was as following and performed in a total volume of […]:
Experimental procedure: 7 μl of freshly prepared reaction buffer were delivered to reaction wells. Compounds were resuspended in 100% DMSO at 10 mM and delivered into buffer using acoustic technology (Echo550; nanoliter range). A 2.85× solution of LOX protein in reaction buffer was prepared (“LOX solution”) and 7 μl of LOX solution was added into the reaction wells. Buffer only was added to column 1 for no protein control. Reactions were incubated for 30 minutes at 37° C. A 3.33× mixture of cadaverine, Amplex Red, and HRP (“Substrate/Detection Mix) was prepared and subsequently 6 μL of the mixture was added to each reaction well. Progress of reactions was monitored for 120 minutes at 37° C. using Clariostar plate reader (ex530-12, ems 600-40). For all activity assays, pan-LOX inhibitor CCT365623 (Tang et al, 2017) and LOXL2/LOXL3 inhibitor PAT-1251 (PharmaKea) were included as standards.
Data analysis: Slope of the linear portion of the progress curve was calculated using Clariostar software. Typical analysis interval was between 20-50 min, but varied between experiments. The background subtracted signals (No protein wells were considered as background) were converted to % activity relative to DMSO controls. Data was analyzed using GraphPad Prism 4 with “sigmoidal dose-response (variable slope)”; 4 parameters with Hill Slope. Constraints: Bottom=Constant equal to 0. Top=Must be less than 120.

[2] = biological target: T2, Recombinant human LOXL2 (lysyl oxidase like 2) (Homo sapiens, UniProt Q9Y4K0); assay: LOXL2 inhibition assay (fluorometric, cadaverine/Amplex Red/HRP); type: biochemical; conditions: IC50 class; recombinant human LOXL2, cadaverine substrate; read-out: Activity Range LOXL2
T2 construct: purchased R&D systems
T2 sequence (Q9Y4K0 26-774): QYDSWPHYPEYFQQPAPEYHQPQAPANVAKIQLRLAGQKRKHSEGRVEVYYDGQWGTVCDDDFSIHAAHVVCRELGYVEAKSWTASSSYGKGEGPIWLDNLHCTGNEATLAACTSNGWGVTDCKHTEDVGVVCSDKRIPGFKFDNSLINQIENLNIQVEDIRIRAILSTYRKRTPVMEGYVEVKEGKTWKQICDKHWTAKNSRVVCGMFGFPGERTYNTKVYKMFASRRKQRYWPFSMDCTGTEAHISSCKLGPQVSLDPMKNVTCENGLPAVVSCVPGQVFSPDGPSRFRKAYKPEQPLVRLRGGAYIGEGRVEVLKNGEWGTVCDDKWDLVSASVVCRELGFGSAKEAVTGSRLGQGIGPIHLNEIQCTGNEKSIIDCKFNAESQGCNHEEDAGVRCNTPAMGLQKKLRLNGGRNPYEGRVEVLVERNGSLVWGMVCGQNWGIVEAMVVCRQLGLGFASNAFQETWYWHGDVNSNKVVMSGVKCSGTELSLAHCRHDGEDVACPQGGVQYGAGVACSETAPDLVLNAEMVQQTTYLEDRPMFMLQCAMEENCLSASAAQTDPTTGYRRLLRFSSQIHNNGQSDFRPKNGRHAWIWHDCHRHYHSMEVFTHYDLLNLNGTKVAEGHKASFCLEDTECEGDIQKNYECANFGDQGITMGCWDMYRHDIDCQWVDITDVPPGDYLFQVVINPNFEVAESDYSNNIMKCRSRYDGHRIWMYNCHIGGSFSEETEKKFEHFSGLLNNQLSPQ
Experimental: as §1, with “inhibit one or more of the lysyl oxidases LOXL2 and/or LOXL3” for “inhibit prototypic LOX”, “by the specific” for “by prototypic”, “LOX family” for “LOX”
Enzymes: Recombinant human LOXL2 (lysyl oxidase like 2) and recombinant human LOXL3 (lysyl oxidase like 3) were purchased from R&D systems and assays were performed in 1.2 M urea, 50 mM sodium borate buffer pH 8.0, and 10 mM CaCl.
Reaction: Final concentration in the LOXL2 and LOXL3 assays were as following and performed in a total volume of […]:
Experimental procedure: 5 μl of freshly prepared reaction buffer were delivered to reaction wells. Compounds were resuspended in 100% DMSO at 10 mM and delivered into buffer using acoustic technology (Echo550; nanoliter range). A 3× solution of LOXL2 or LOXL3 in reaction buffer was prepared (“enzyme solution”) and 5 μL of enzyme solution was added into the reaction wells. Buffer only was added to column 1 for no protein control. Reactions were incubated for 30 minutes at 37° C. A 3×mixture of cadaverine, Amplex Red, and HRP (“Substrate/Detection Mix) was prepared and subsequently 5 μL of the mixture added to each reaction well. Progress of reactions was monitored for 60 minutes at 37° C. using Clariostar plate reader (ex 530-12, ems 600-40). For all activity assays, pan-LOX inhibitor CCT365623 (Tang et al, 2017) and LOXL2/LOXL3 inhibitor PAT-1251 (PharmaKea) were included as standards.
Data analysis: Slope of the linear portion of the progress curve was calculated using Clariostar software. Typical analysis interval was between 8-30 min, but varied between experiments. The background subtracted signals (No protein wells are considered as background) were converted to % activity relative to DMSO controls. Data was analyzed using GraphPad Prism 4 with “sigmoidal dose-response (variable slope)”; 4 parameters with Hill Slope. Constraints: Bottom=Constant equal to 0. Top=Must be less than 120.

Structure (SMILES) | IC50 [1] | IC50 [2]
CS(=O)(=O)N1C[C@H](Oc2cc(CN)ccc2F)C[C@H](c2ccccc2F)C1 (racemic) [Example 71, cis-(4-Fluoro-3-((-5-(2-fluorophenyl)-1-(methylsulfonyl)piperidin-3-yl)oxy)phenyl)methanamine 2,2,2-trifluoroacetate] | > 30000 nM | 500 to 1000 nM
NCc1ccc(S(=O)(=O)N2C[C@@H](C(=O)N3CCS(=O)(=O)CC3)C[C@@H](c3ccccc3)C2)s1 (racemic) [Example 75, cis-(1-((5-(Aminomethyl)thiophen-2-yl)sulfonyl)-5-phenylpiperidin-3-yl)(1,1-dioxidothiomorpholino)methanone 2,2,2-trifluoroacetate] | ≤ 500 nM | ≤ 500 nM
CS(=O)(=O)N1CCN(C(=O)[C@H]2C[C@@H](c3ccccc3)CN(S(=O)(=O)c3ccc(CN)s3)C2)CC1 (racemic) [Example 76] | ≤ 500 nM | ≤ 500 nM
CS(=O)(=O)N1CCN(C(=O)[C@@H]2C[C@@H](c3ccccc3)CN(S(=O)(=O)c3cccc(CN)c3)C2)CC1 (racemic) [Example 84, trans-(1-((3-(Aminomethyl)phenyl)sulfonyl)-5-phenylpiperidin-3-yl)(4-(methylsulfonyl)piperazin-1-yl)methanone 2,2,2-trifluoroacetate] | 1000 to 30000 nM | ≤ 500 nM
CS(=O)(=O)N1C[C@@H](Oc2cc(CN)ccc2F)C[C@H](c2ccccc2)C1 (racemic) [Example 90, trans-(4-Fluoro-3-((-1-(methylsulfonyl)-5-phenylpiperidin-3-yl)oxy)phenyl)Methanamine 2,2,2-trifluoroacetate] | > 30000 nM | 500 to 1000 nM
CS(=O)(=O)N1C[C@@H](Oc2cc(CN)ccc2F)C[C@H](c2ccccc2F)C1 (racemic) [Example 93, trans-(4-Fluoro-3-((-5-(2-fluorophenyl)-1-(methylsulfonyl)piperidin-3-yl)oxy)phenyl)methanamine 2,2,2-trifluoroacetate] | > 30000 nM | ≤ 500 nM
CN(C)C(=O)N1C[C@@H](c2ccccc2)C[C@H](S(=O)(=O)c2cccc(CN)c2)C1 (racemic) [Example 94, trans-3-((3-(Aminomethyl)phenyl)sulfonyl)-N,N-dimethyl-5-phenylpiperidine-1-carboxamide 2,2,2-trifluoroacetate] | > 30000 nM | 500 to 1000 nM
NCc1cccc(S(=O)(=O)N2C[C@@H](C(=O)N3CCS(=O)(=O)CC3)C[C@@H](C(F)(F)F)C2)c1 (racemic) [Example 99, cis-(1-((3-(Aminomethyl)phenyl)sulfonyl)-5-(trifluoromethyl)piperidin-3-yl)(1,1-dioxidothiomorpholino)methanone 2,2,2-trifluoroacetate] | > 30000 nM | 1000 to 30000 nM
CC(N)c1cccc(S(=O)(=O)N2C[C@@H](C(=O)N3CCOCC3)C[C@@H](c3ccccc3)C2)c1 (mixture of isomers) [Example 102RAC, cis-(1-((3-(1-Aminoethyl)phenyl)sulfonyl)-5-phenylpiperidin-3-yl)(morpholino)methanone 2,2,2-trifluoroacetate] | > 30000 nM | > 30000 nM

Continued, values first:

IC50 [1] | IC50 [2] | Structure (SMILES)
> 30000 nM | 1000 to 30000 nM | NCc1cccc(O[C@@H]2C[C@H](c3ccccc3)CN(C(=O)N3CCOCC3)C2)c1 (racemic) [Example 72]
> 30000 nM | 1000 to 30000 nM | NCc1cccc(O[C@@H]2C[C@H](c3ccccc3)CN(C(=O)N3CCS(=O)(=O)CC3)C2)c1 (racemic) [Example 73, cis-(3-(3-(Aminomethyl)phenoxy)-5-phenylpiperidin-1-yl)(1,1-dioxidothiomorpholino)methanone]
> 30000 nM | 1000 to 30000 nM | NCc1cccc(S(=O)(=O)N2C[C@@H](C(=O)N3CCS(=O)(=O)CC3)C[C@@H](c3ccccc3)C2)c1 (racemic) [Example 77]
> 30000 nM | 500 to 1000 nM | CS(=O)(=O)N1CCN(C(=O)[C@H]2C[C@@H](c3ccccc3)CN(S(=O)(=O)c3cccc(CN)c3)C2)CC1 (racemic) [Example 78, cis-(1-((3-(Aminomethyl)phenyl)sulfonyl)-5-phenylpiperidin-3-yl)(4-(methylsulfonyl)piperazin-1-yl)methanone 2,2,2-trifluoroacetate]
> 30000 nM | 1000 to 30000 nM | NCc1cccc(O[C@H]2C[C@H](c3ccccc3)CN(C(=O)N3CCS(=O)(=O)CC3)C2)c1 (racemic) [Example 82, trans-(3-(3-(Aminomethyl)phenoxy)-5-phenylpiperidin-1-yl)(1,1-dioxidothiomorpholino)methanone]

Reference: US20230310445A1, “LOX ENZYME INHIBITING METHODS AND COMPOSITIONS” (ANOVIA BIOSCIENCES, INC., priority 2020, published 2023)
